# Measured values from ChEMBL document CHEMBL4813975, “Discovery and characterization of a novel glucose-6-phosphate dehydrogenase (G6PD) inhibitor via high-throughput screening” (Bioorg Med Chem Lett, 2021).
# pEC50, pIC50, pKd, pKi: −log10 of the molar value. Active and inactive are the calls of the source. No cut-off for these calls is given here.
# What was measured:
# [1] = target: T1, Glucose-6-phosphate 1-dehydrogenase (Homo sapiens, UniProt P11413); test: Inhibition of G6PD (unknown origin) assessed as reduction in 6-phospho-D-glucono-1,5-lactone and NADPH production using glucose-6-phosphate and NADP+ as substrate incubated for 15 mins by UV absorption photometry assay
# [2] = target: T1, Glucose-6-phosphate 1-dehydrogenase; test: Non-competitive inhibition of G6PD (unknown origin) using glucose-6-phosphate and varying concentrations of NADP+ as substrate by Michaelis-Menten analysis
# [3] = target: T1, Glucose-6-phosphate 1-dehydrogenase; test: Binding affinity to G6PD (unknown origin) assessed as equilibrium dissociation constant by surface plasmon resonance assay
# [4] = target: T1, Glucose-6-phosphate 1-dehydrogenase; test: Competitive inhibition of G6PD (unknown origin) using glucose-6-phosphate and varying concentrations of NADP+ as substrate by Michaelis-Menten analysis
# [5] = target: T1, Glucose-6-phosphate 1-dehydrogenase; test: Competitive inhibition of G6PD (unknown origin) using varying concentrations of G6P and NADP+ as substrate by Michaelis-Menten analysis
# [6] = target: T1, Glucose-6-phosphate 1-dehydrogenase; test: Non-competitive inhibition of G6PD (unknown origin) using varying concentrations of G6P and NADP+ as substrate by Michaelis-Menten analysis
# [7] = target: T1, Glucose-6-phosphate 1-dehydrogenase; test: Inhibition of G6PD in human OVCAR-3 cells assessed as thermal instability of the enzyme by CETSA analysis; assay type: cell-based
# OVCAR-3 = test: Inhibition of colony formation in human OVCAR-3 cells overexpressing G6PD incubated for 14 days by crystal violet staining based assay; assay type: functional, cell-based
# [8] = target: T1, Glucose-6-phosphate 1-dehydrogenase; test: Reversible inhibition of G6PD (unknown origin) using glucose-6-phosphate and NADP+ as substrate measured after dilution of 12XIC50 to 0.6XIC50 by dilution based analysis
# T1 sequence (P11413 whole entry): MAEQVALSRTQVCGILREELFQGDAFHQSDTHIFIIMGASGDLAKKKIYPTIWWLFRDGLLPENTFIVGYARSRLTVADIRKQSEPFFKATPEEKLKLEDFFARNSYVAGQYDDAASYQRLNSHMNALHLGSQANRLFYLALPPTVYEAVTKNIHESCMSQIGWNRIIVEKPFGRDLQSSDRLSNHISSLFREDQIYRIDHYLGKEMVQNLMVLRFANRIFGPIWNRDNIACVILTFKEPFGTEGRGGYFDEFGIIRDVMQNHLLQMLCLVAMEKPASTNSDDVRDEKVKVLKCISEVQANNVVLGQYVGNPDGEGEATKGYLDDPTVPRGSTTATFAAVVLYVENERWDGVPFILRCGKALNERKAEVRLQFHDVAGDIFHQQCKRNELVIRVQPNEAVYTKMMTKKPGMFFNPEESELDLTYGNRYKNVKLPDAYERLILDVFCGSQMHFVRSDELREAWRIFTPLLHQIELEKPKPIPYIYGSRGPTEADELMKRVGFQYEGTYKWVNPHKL
structure (smiles),measurement,setting,value
O=c1c(O)c(-c2ccc(O)c(O)c2)oc2cc(O)cc(O)c12,pIC50,[1],4.51
O=C(/C=C/c1ccc(O)c(O)c1)O[C@@H]1C[C@](O)(C(=O)O)C[C@@H](OC(=O)/C=C/c2ccc(O)c(O)c2)[C@H]1O,pIC50,[1],4.42
OC[C@H]1O[C@@H](Oc2cc(O)cc(/C=C/c3ccc(O)cc3)c2)[C@H](O)[C@@H](O)[C@@H]1O [PICEID],pIC50,[1],4.13
C[C@]12CC[C@H](O)CC1=CC[C@@H]1[C@@H]2CC[C@]2(C)C(=O)CC[C@@H]12 [PRASTERONE],pIC50,[1],4.90
COc1cc(O)c2c(c1)oc(=O)c1c3cc(O)c(O)cc3oc21 [WEDELOLACTONE],pKi,[2],5.24
same,pKd,[3],5.44
same,pIC50,[1],5.29
same,pKi,[4],5.92
same,pKi,[5],5.60
same,pKi,[6],5.00
same,inhibition,[7],Active
same,pEC50,"OVCAR-3; OVCAR-3, 336 h",4.97
same,inhibition,OVCAR-3; time 14.0 day,Dose-Dependent Effect
same,inhibition,[8],Active
